± gives the standard deviation of the averaged measurements.
Experiments:
Details in all cases: 72 h
Caco-2 [1] = test: cell viability relative to DMSO; higher = less toxic
Calu-3 [2] = test: as above
HepG2 [3] = test: as above
U2OS [4] = test: as above
Caco-2 [5] = test: relative viability EC50 (midpoint between 100% and the lowest measured viability); higher = less toxic
Calu-3 [6] = test: as above
HepG2 [7] = test: as above
U2OS [8] = test: as above
Caco-2 [9] = test: drug sensitivity score (DSS) for viability; higher = more toxic; extreme values may be limits of the assay
Calu-3 [10] = test: as above
HepG2 [11] = test: as above
U2OS [12] = test: as above
Vero E6 [13] = test: cell viability relative to DMSO; higher = less toxic
Vero E6 [14] = test: drug sensitivity score (DSS) for viability; higher = more toxic; extreme values may be limits of the assay

Row | SMILES | cell viability (Caco-2 [1]; 1 nM) [%] | cell viability (Caco-2 [1]; 10 nM) [%] | cell viability (Caco-2 [1]; 100 nM) [%] | cell viability (Caco-2 [1]; 1000 nM) [%] | cell viability (Caco-2 [1]; 10000 nM) [%] | cell viability (Calu-3 [2]; 1 nM) [%] | cell viability (Calu-3 [2]; 10 nM) [%] | cell viability (Calu-3 [2]; 100 nM) [%] | cell viability (Calu-3 [2]; 1000 nM) [%] | cell viability (Calu-3 [2]; 10000 nM) [%] | cell viability (HepG2 [3]; 1 nM) [%] | cell viability (HepG2 [3]; 10 nM) [%] | cell viability (HepG2 [3]; 100 nM) [%] | cell viability (HepG2 [3]; 1000 nM) [%] | cell viability (HepG2 [3]; 10000 nM) [%] | cell viability (U2OS [4]; 1 nM) [%] | cell viability (U2OS [4]; 10 nM) [%] | cell viability (U2OS [4]; 100 nM) [%] | cell viability (U2OS [4]; 1000 nM) [%] | cell viability (U2OS [4]; 10000 nM) [%] | relative viability EC50 (Caco-2 [5]) [µM] | relative viability EC50 (Calu-3 [6]) [µM] | relative viability EC50 (HepG2 [7]) [µM] | relative viability EC50 (U2OS [8]) [µM] | drug sensitivity score (Caco-2 [9]) | drug sensitivity score (Calu-3 [10]) | drug sensitivity score (HepG2 [11]) | drug sensitivity score (U2OS [12]) | cell viability (Vero E6 [13]; 1 nM) [%] | cell viability (Vero E6 [13]; 10 nM) [%] | cell viability (Vero E6 [13]; 100 nM) [%] | cell viability (Vero E6 [13]; 1000 nM) [%] | cell viability (Vero E6 [13]; 10000 nM) [%] | drug sensitivity score (Vero E6 [14])
1 | CCOC(=O)[C@H](Cc1ccc([N+](=O)[O-])cc1)NC(=O)c1ccccc1 | 104 | 97.9 | 102 | 96.7 | 90.7 | 92.9 | 103 | 96.8 | 102 | 106 | 99.4 | 93.2 | 107 | 101 | 95.2 | 101 | 98.3 | 98.5 | 101 | 102 | > 10 | > 10 | > 10 | > 10 | 0 | 0 | 0 | 0 |  |  |  |  |  | 
2 | CCc1cc(C(C)=O)c(O)cc1OCCCCCC(C)(C)c1nn[nH]n1 | 102 | 92.1 | 99.5 | 107 | 94.5 | 108 | 103 | 97.1 | 98 | 93.3 | 99.8 | 107 | 105 | 88.4 | 107 | 94 | 96.2 | 88.1 | 97.4 | 95.5 | > 10 | > 10 | > 10 | > 10 | 0 | 0 | 0 | 0 |  |  |  |  |  | 
3 | COc1ccc(Nc2ccn(-c3ccccc3)n2)cc1 | 102 | 98.5 | 90 | 97.4 | 89.4 |  |  |  |  |  | 102 | 97.2 | 97.6 | 114 | 100 | 95 | 100 | 94.2 | 99.5 | 96.2 | > 10 |  | > 10 | > 10 | 0 |  | 0 | 0 |  |  |  |  |  | 
4 | Cc1cc(Nc2cc(CN3CCOCC3)c3nc(C)c(Cc4ccc(Cl)cc4F)n3n2)n[nH]1 | 102 | 98.2 | 105 | 96.7 | 62.8 | 107 | 99.7 | 97.1 | 91 | 50.6 | 101 | 105 | 97.5 | 75.5 | 32.7 | 104 | 105 | 104 | 99.4 | 29.6 |  |  | 1.29 | 3.11 | 2.3 | 4.1 | 6.9 | 4 | 96.4 | 98 | 96.8 | 95.8 | 70.7 | 1.9
5 | NCCCCN(Cc1nc2ccccc2[nH]1)[C@H]1CCCc2cccnc21 | 100 | 93.3 | 97.1 | 97.2 | 104 | 98.9 | 93.1 | 96.2 | 90.4 | 89.8 | 100 | 104 | 97.6 | 105 | 82.8 | 106 | 100 | 97.3 | 96.6 | 98.3 | > 10 | > 10 | > 10 | > 10 | 0 | 0 | 0.2 | 0 |  |  |  |  |  | 
6 | NS(=O)(=O)Nc1ncnc(OCCOc2ncc(Br)cn2)c1-c1ccc(Br)cc1 | 106 | 94.3 | 102 | 93.8 | 97 | 88.4 | 99.1 | 95.6 | 104 | 94.7 | 102 | 104 | 98.9 | 92.9 | 90.9 | 97.8 | 94.5 | 96.9 | 102 | 105 | > 10 | > 10 | > 10 | > 10 | 0 | 0 | 0 | 0 |  |  |  |  |  | 
7 | Cc1cc([C@@H](C)Nc2ccccc2C(=O)O)c2nc(N3CCOCC3)cc(=O)n2c1 [AZD6482] | 93.5 | 102 | 90 | 83.6 | 57.5 | 97.7 | 105 | 94.2 | 100 | 69 | 103 | 102 | 99.9 | 85.5 | 79.7 | 100 | 101 | 96.1 | 99.8 | 80.8 |  |  | > 10 | > 10 | 3.9 | 1.3 | 2 | 0.6 | 108 | 96.5 | 89.3 | 79.8 | 67.6 | 4.1
8 | NC(=O)Nc1cc(-c2cccc(F)c2)sc1C(=O)N[C@H]1CCCNC1 [AZD7762] | 96.3 | 91.5 | 102 | 82.6 | 25 | 106 | 96.4 | 94.8 | 43.4 | 7 | 97.8 | 101 | 103 | 37.8 | 1.3 | 101 | 95.9 | 97.3 | 6.1 | 0.1 | 1.61 | 0.736 | 0.809 | 0.352 | 6.9 | 12 | 12.7 | 17.4 | 92 | 99.1 | 90.7 | 84.6 | 52.4 | 4.1
9 | O=S(=O)(c1cccc2cnccc12)N1CCNCC1 [C-1] | 96.8 | 94.8 | 105 | 99.4 | 104 | 98.2 | 91.8 | 96.3 | 99.5 | 123 | 93.2 | 105 | 95 | 110 | 104 |  |  |  |  |  | > 10 | > 10 | > 10 |  | 0 | 0 | 0 |  |  |  |  |  |  | 
10 | Clc1ccc(-c2nc3sccn3c2/C=N/OCc2ccc(Cl)c(Cl)c2)cc1 [CITCO] | 107 | 98.5 | 110 | 94 | 96.5 | 92.2 | 88.4 | 93.1 | 93.6 | 92.1 | 97 | 104 | 104 | 104 | 97.9 | 96.3 | 98.7 | 99.5 | 97.6 | 94 | > 10 | > 10 | > 10 | > 10 | 0 | 0 | 0 | 0 |  |  |  |  |  | 
11 | C[C@@H](NC(=O)CCc1nc2ccccc2c(=O)[nH]1)c1ccccc1 [ME0328] | 97.8 ± 16 | 94 ± 1.2 | 98.8 ± 2 | 103 ± 4.3 | 93.7 ± 9.1 | 100 ± 5.4 | 112 ± 15 | 92 ± 3.1 | 99.7 ± 8.7 | 98.3 ± 3.2 | 98.65 ± 0.78 | 98.8 ± 4.7 | 100 ± 4.5 | 104 ± 1.3 |  | 102 ± 1.1 | 98 ± 1.3 | 103 ± 1.6 | 95.8 ± 0.14 | 95.8 ± 6.4 |  |  |  |  | 0 | 0 | 0 | 0 | 93.6 ± 7.1 |  | 93.8 ± 6 | 94.2 ± 6.1 | 94.05 ± 0.071 | 0
12 | O=C(Cc1ccccc1)Nc1nc2ccc(Cl)cc2c2nc(-c3ccco3)nn12 [MRS-1220] | 93.7 | 100 | 99.4 | 94.1 | 101 | 104 | 98.2 | 95.3 | 94.1 | 93.5 | 96.5 | 93 | 93.5 | 95.6 | 105 | 98.8 | 101 | 97.2 | 104 | 96.9 | > 10 | > 10 | > 10 | > 10 | 0 | 0 | 0 | 0 |  |  |  |  |  | 
13 | CCOC(=O)C1=C(C)NC(c2ccccc2)=C(C(=O)OCc2ccc([N+](=O)[O-])cc2)[C@@H]1C#Cc1ccccc1 [MRS-1334] | 99.1 | 99.7 | 92.8 | 96.8 | 91.9 | 99.2 | 97.1 | 96.8 | 95.2 | 98 | 114 | 104 | 100 | 92.6 | 89.3 | 104 | 95.8 | 100 | 101 | 97.9 | > 10 | > 10 | > 10 | > 10 | 0 | 0 | 0.1 | 0 |  |  |  |  |  | 
14 | COc1cc(N2CCC(O)CC2)ccc1Nc1cc(Nc2ccccc2S(=O)(=O)C(C)C)c2cc[nH]c2n1 [Mps1-IN-1] | 102 | 92.2 | 97.4 | 101 | 53.9 | 101 | 114 | 90.9 | 102 | 85.6 | 96.5 | 118 | 95.2 | 95.5 | 37.8 | 103 | 101 | 101 | 98.3 | 70.2 |  | > 10 | 2.57 |  | 2.3 | 0.1 | 4.1 | 1.5 | 106 | 103 | 102 | 98.9 | 74 | 1.2
15 | O=C(Nc1ccccc1)N1CCC(Cc2cnc3ccccc3c2)CC1 [PF-750] | 106 | 99.4 | 94.5 | 102 | 88.3 | 89.9 | 88.1 | 114 | 95.7 | 95.9 | 96.6 | 108 | 103 | 98.1 | 93 | 97.2 | 92 | 96.8 | 96.5 | 97.9 | > 10 | > 10 | > 10 | > 10 | 0 | 0 | 0 | 0 |  |  |  |  |  | 
16 | OCc1ccc(-c2ccc(-c3ccc(CO)s3)o2)s1 [RITA] | 99.2 | 103 | 100 | 89.4 | 77.8 | 102 | 101 | 90.6 | 103 | 106 | 107 | 110 | 88.3 | 92.4 | 4.6 | 95 | 96.3 | 102 | 101 | 32.4 | > 10 | > 10 | 2.51 | 3.25 | 1.9 | 0 | 6.5 | 3.6 | 101 | 103 | 103 | 102 | 68 | 1.3
